Measured values as given in US4368267A, “Epoxidation of lower α-olefins” (priority 1980, dated 1983).

What was measured:
[1] = system: Methylobacter capsulatus Y (NRRL B-11,201); assay: Methane hydroxylation and propylene epoxidation by washed cell suspensions; format: cell-based
Method: (§1) The pH of the nutrient medium was adjusted to 7.0 by the addition of acid or base and 50 ml aliquots of the nutrient medium was charged into a plurality of 300 ml shake flasks. The shake flasks were inoculated with an inoculating loop of cells from an agar plate containing homogeneous colonies of the microorganisms on the plate (the purity of the isolates were confirmed by microscopic examination). The isolates had been maintained on agar plates under an atmosphere of methane and air having a 1:1 v/v gas ratio which had been transferred every two weeks. The gaseous phase of the inoculated flasks was then replaced with a gas mixture comprised of methane and air having a ratio of 1:1 on a v/v basis. The inoculated flasks were sealed air tight and were incubated on a rotary shaker of orbital radius 2.5 cm at 250 rpm and at 30° C. for two days until the turbidity in the medium had developed.
(§2) The cells were harvested by centrifugation at 10,000 ×g at 4° C. for 30 minutes. The cell pellet was washed twice with a 0.15 M phosphate buffer at a pH of 7.0 (containing 0.002 M MgCl2). The washed cells were then suspended in a 0.15 M phosphate buffer at pH 7.0.
A 0.5 ml aliquot of each washed cell suspension (2 mg cells) was put into 10 ml vials at 4° C. which were sealed with a rubber cap. […] It was then incubated at 30° C. on a rotary shaker at 300 rpm. Samples of product (3 μl) were withdrawn periodically with a microsyringe and the products were analyzed by gas chromatography (ionization flame detector column).
Several experiments were carried out using a plurality of compounds capable of generating the necessary reducing power (NADH2 or NADPH2) required for the epoxidation of alkenes or dienes. […]

[2] = system: Methylococcus capsulatus (CRL M1, NRRL B-11,219); assay: Oxidation/epoxidation by washed cell suspensions; format: cell-based; settings: propylene alone (control); 3 Hr
Method: as §1, with “The shake flasks were inoculated with an inoculating loop of cells from an agar plate containing homogeneous colonies of the microorganisms on the plate (the purity of the isolates were confirmed by microscopic examination).” left out
as §2
A 0.5 ml aliquot of each washed cell suspension (2 mg cells) was put into 10 ml vials at 4° C. which were sealed with a rubber cap. The gaseous phase of the vials was removed with vacuum and then was replaced with a gas mixture of alkene and oxygen at a 1:1 v/v ratio. It was then incubated at 30° C. on a rotary shaker at 300 rpm. Samples of product (3 μl) were withdrawn periodically with a microsyringe and the products were analyzed by gas chromatography (ionization flame detector column).
The experimental procedure described in Example 1 was used to prepare washed cell suspensions of methane-grown microorganisms and the use of the same to oxidize or epoxidize the branched chain alkanes, alkenes and dienes.

## C=CC [Propylene]
[1]; methane-grown washed cells, 30° C.
  Conversion rate, propylene to propylene oxide: 1.5 μmole/hr/mg protein
[1]; propylene alone
  Rate of Product Formation (Propylene Oxide): 2 nmoles/hr/mg protein
[2]
  Epoxidation Rate, Propylene oxide: 3.9 μmoles/0.5 ml
